Key:
[1] = tested on: SNK-6 (IL-2 2.5 ng/mL); experiment: percent inhibition of viability; higher = more inhibition; conditions: 72 h
[2] = tested on: NKL (IL-2 2.5 ng/mL); experiment: as above; conditions: 72 h
[3] = tested on: YT (IL-2 2.5 ng/mL); experiment: as above; conditions: 72 h
[4] = tested on: normal primary NK cells, pool 1 (3 donors), resting (IL-2 0 ng/mL); experiment: as above; conditions: 72 h
[5] = tested on: NK-YS (IL-2 2.5 ng/mL); experiment: as above; conditions: 72 h
[6] = tested on: KHYG-1 (IL-2 2.5 ng/mL); experiment: as above; conditions: 72 h
[7] = tested on: NK-92 (IL-2 2.5 ng/mL); experiment: as above; conditions: 72 h
[8] = tested on: KAI3 (IL-2 2.5 ng/mL); experiment: as above; conditions: 72 h
[9] = tested on: normal primary NK cells, pool 2 (3 donors) (IL-2 2.5 ng/mL); experiment: as above; conditions: 72 h
[10] = tested on: normal primary NK cells, pool 3 (3 donors) (IL-2 2.5 ng/mL); experiment: as above; conditions: 72 h
[11] = tested on: DERL-7 (IL-2 2.5 ng/mL); experiment: as above; conditions: 72 h
[12] = tested on: normal primary NK cells, pool 1 (3 donors) (IL-2 2.5 ng/mL); experiment: as above; conditions: 72 h
[13] = tested on: IMC-1 (IL-2 20 ng/mL); experiment: as above; conditions: 72 h
[14] = tested on: normal NK cells expanded with K562-aAPC; experiment: drug sensitivity score (DSS) (DSS units); higher = more sensitive; extreme values may be limits of the assay; conditions: 72 h; IL-2 2.5 ng/mL
Procedure: (§1)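 Drug sensitivity and resistance testing on K562-aAPC-expanded normal NK cells: 5 concentrations (10-fold steps over a 10,000-fold range), 72 h at 37 °C, viability by CellTiter-Glo normalised to DMSO and benzethonium chloride controls; DSS from the fitted curve.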

[15] = tested on: normal NK cells expanded with K562-aAPC; experiment: percent inhibition of viability; higher = more inhibition; conditions: 72 h, IL-2 2.5 ng/mL
Procedure: as §1

[16] = tested on: SNK-6 (IL-2 2.5 ng/mL); experiment: drug sensitivity score (DSS) (DSS units); higher = more sensitive; extreme values may be limits of the assay; conditions: 72 h
[17] = tested on: NKL (IL-2 2.5 ng/mL); experiment: as above; conditions: 72 h
[18] = tested on: YT (IL-2 2.5 ng/mL); experiment: as above; conditions: 72 h
[19] = tested on: normal primary NK cells, pool 1 (3 donors), resting (IL-2 0 ng/mL); experiment: as above; conditions: 72 h
[20] = tested on: NK-YS (IL-2 2.5 ng/mL); experiment: as above; conditions: 72 h
[21] = tested on: KHYG-1 (IL-2 2.5 ng/mL); experiment: as above; conditions: 72 h
[22] = tested on: NK-92 (IL-2 2.5 ng/mL); experiment: as above; conditions: 72 h
[23] = tested on: KAI3 (IL-2 2.5 ng/mL); experiment: as above; conditions: 72 h
[24] = tested on: normal primary NK cells, pool 2 (3 donors) (IL-2 2.5 ng/mL); experiment: as above; conditions: 72 h
[25] = tested on: normal primary NK cells, pool 3 (3 donors) (IL-2 2.5 ng/mL); experiment: as above; conditions: 72 h
[26] = tested on: DERL-7 (IL-2 2.5 ng/mL); experiment: as above; conditions: 72 h
[27] = tested on: normal primary NK cells, pool 1 (3 donors) (IL-2 2.5 ng/mL); experiment: as above; conditions: 72 h
[28] = tested on: IMC-1 (IL-2 20 ng/mL); experiment: as above; conditions: 72 h

CCS(=O)(=O)N1CC(CC#N)(n2cc(-c3ncnc4[nH]ccc34)cn2)C1 [Baricitinib] (max concentration tested 2500 nM)
percent inhibition of viability [%]
Conditions	0.25 nM	2.5 nM	25 nM	250 nM	2500 nM
[1]	-16.6	-24.9	5.7	64.8	68.9
[2]	6.63	24.6	64.2	84.6	103
[3]	-5.41	-0.41	7.96	54.3	86.4
[4]	0.1	4.62	4.85	2.89	12.1
[5]	-8.38	-2.38	20.7	60.4	74.6
[6]	-8.72	1.48	46.9	106	109
[7]	-7.1	-0.82	23.4	68	97.8
[8]	4.12	13.4	55.5	95.9	99.2
[9]	-1.68	0.38	17.6	60.4	68.1
[10]	2.14	-2.13	9.5	48.8	70.4
[11]	2.21	8.22	35.1	77.5	101
[12]	-7.54	2.7	26.4	61.7	74.2
[13]	-4.87	-4.53	-11.2	16.2	87.2
[15]	0.8	2.05	31	89.9	99.7

Conditions	drug sensitivity score
[14]	20.2
[16]	12.8
[17]	26.3
[18]	11.6
[19]	0
[20]	13.7
[21]	23.9
[22]	15.6
[23]	24.6
[24]	13.3
[25]	10.4
[26]	19
[27]	14.7
[28]	7.47

N#CC(c1ccnc(OCc2ccc(CN3CCOCC3)cc2)n1)c1nc2ccccc2s1 (configuration not stated) [Bentamapimod] (max concentration tested 10000 nM)
percent inhibition of viability [%]
Conditions	1 nM	10 nM	100 nM	1000 nM	10000 nM
[1]	8.11	-3.58	-13.1	-25.4	8.78
[2]	-15.9	-16.8	-9.05	13.2	71.2
[3]	-4.27	-0.56	3.3	13.5	56.8
[4]	3.62	7.45	-14.2	-14.4	-16.2
[5]	-3.99	-3.72	3.63	20.3	47.6
[6]	-0.61	-1.53	4.6	13.5	64
[7]	-0.51	-7.45	-6.19	10.8	47.6
[8]	-1.88	-7.11	-2.63	14.7	40.9
[9]	-16.9	-6.81	-3.2	-3.66	38.2
[10]	-6.62	-9.78	-6.35	-8.64	19.9
[11]	-1.64	-1.25	-0.32	14.8	51.5
[12]	-3.1	-0.66	-15.6	-7.74	4.64
[13]	0.67	-4.76	0.93	6.64	58.2
[15]	1.11	-7.13	0.02	9.12	35.7

Conditions	drug sensitivity score
[14]	3.1
[16]	0
[17]	6.1
[18]	5.2
[19]	0
[20]	4.74
[21]	5.69
[22]	4.21
[23]	4.12
[24]	1.6
[25]	0.34
[26]	4.97
[27]	0
[28]	4.25

O=C(O)CC1CC(c2ccccc2)=NO1 (configuration not stated) [VGX-1027] (max concentration tested 10000 nM)
percent inhibition of viability [%]
Conditions	1 nM	10 nM	100 nM	1000 nM	10000 nM
[1]	-0.72	-26.7	-22.3	-7.03	3.07
[2]	-7.13	-10.2	1.01	15.5	23.6
[3]	-2.93	-7	-1.39	5.41	20.1
[4]	3.76	20.2	15.6	10.9	5.12
[5]	-1.78	-5.47	0.49	4.16	16.7
[6]	0.61	-5.96	-1.03	3.73	20
[7]	-3.95	-4.08	-2.12	11.7	26.6
[8]	-6.5	-1.11	1.3	12.6	35.1
[9]	-4.95	7.51	2.82	7.55	7.46
[10]	-13.4	4.04	5.21	2.93	6.93
[11]	0.25	-1.69	-4.26	-3.18	-6.46
[12]	-3.12	16.9	11.2	17.1	11.4
[13]	0.5	0.17	6.38	5.66	15.5
[15]	-7.12	-7.03	0.76	6.38	14.7

Conditions	drug sensitivity score
[14]	0.56
[16]	0
[17]	2.41
[18]	1.27
[19]	0
[20]	0.79
[21]	1.09
[22]	2.51
[23]	3.28
[24]	0
[25]	0
[26]	0
[27]	4.99
[28]	0.28

From the supplement of paper PMC5908809
